Experiments:
Test in all cases: Adenosine Receptor Time-Resolved Fluorescence Resonance Energy Transfer (TRFRET) Binding Assay
Adenosine receptor A2b = molecular target: T1, Adenosine receptor A2b (Homo sapiens, UniProt P29275)
T1 sequence (P29275 whole entry): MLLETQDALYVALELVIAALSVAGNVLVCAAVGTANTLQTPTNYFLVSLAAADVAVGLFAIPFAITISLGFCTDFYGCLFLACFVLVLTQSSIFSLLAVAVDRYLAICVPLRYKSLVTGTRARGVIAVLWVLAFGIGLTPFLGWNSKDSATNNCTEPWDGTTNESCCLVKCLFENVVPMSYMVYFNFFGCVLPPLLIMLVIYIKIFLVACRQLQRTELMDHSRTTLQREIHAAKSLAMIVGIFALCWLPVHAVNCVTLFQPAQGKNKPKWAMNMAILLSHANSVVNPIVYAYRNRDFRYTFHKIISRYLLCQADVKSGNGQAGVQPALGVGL
Protocol: (§1) All FRET binding experiments were conducted at room temperature in white 384-well plates, in assay binding buffer containing 1×LabMed (Cisbio, France), 100 μg/mL saponin, 1% DMSO and 0.02% pluronic acid. Binding of the fluorescently labelled Adenosine receptor antagonist XAC (CA200645, FRET acceptor) to terbium-labelled A1, A2a, A2b and A3 adenosine receptors (FRET donors) was detected by time-resolved FRET due to the close proximity of the donor and acceptor in a binding event. To investigate the ability of unlabelled test compounds to bind to Adenosine A1, A2a, A2b and A3 receptors, dose response curves were constructed that determined the ability of a range of concentrations to inhibit the binding of 30 nM CA200645 to the A2b receptor and 100 nM CA200645 to the A1, A2a, and A3 receptor. Serial dilution (1:3 dilutions) of test compounds in neat DMSO and transfer of a 400 nL sample of test compound into the assay plate was carried out using the Mosquito (TTP Labtech, UK). The compound samples were incubated for 2 hours at room temperature with a fixed concentration of CA200645 defined for each receptor (see above) and CHO cell membranes containing the human Adenosine A1 (0.5 μg/well), A2a (0.3 μg/well), A2b (1 μg/well) or A3 (1 μg/well) receptor in 40 μL of assay buffer. Total and non-specific binding of CA200645 was determined in the absence and presence of 10 μM XAC, respectively. Following 2 hours incubation, the level of CA200645 binding was detected on a Pherastar FSX (BMG Labtech, Germany) using standard TR-FRET settings. […] FRET ratios were obtained by multiplying the acceptor/donor ratio value by 10,000. Specific binding was determined by subtracting the non-specific binding FRET ratio from the total binding FRET ratio.

Adenosine receptor A1 = molecular target: T2, Adenosine receptor A1 (Homo sapiens, UniProt P30542)
T2 sequence (P30542 whole entry): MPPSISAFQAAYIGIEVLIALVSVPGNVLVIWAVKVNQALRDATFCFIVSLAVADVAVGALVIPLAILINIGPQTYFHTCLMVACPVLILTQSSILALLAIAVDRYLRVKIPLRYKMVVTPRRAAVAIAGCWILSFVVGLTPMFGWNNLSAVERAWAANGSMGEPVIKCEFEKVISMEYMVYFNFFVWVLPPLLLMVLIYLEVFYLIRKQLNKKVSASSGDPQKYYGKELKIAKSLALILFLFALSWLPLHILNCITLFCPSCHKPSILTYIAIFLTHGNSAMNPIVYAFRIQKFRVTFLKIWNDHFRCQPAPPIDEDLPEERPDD
Protocol: as §1

Adenosine receptor A2a = Adenosine receptor A2a (Homo sapiens, UniProt P29274)
Chain of Adenosine receptor A2a (P29274 whole entry): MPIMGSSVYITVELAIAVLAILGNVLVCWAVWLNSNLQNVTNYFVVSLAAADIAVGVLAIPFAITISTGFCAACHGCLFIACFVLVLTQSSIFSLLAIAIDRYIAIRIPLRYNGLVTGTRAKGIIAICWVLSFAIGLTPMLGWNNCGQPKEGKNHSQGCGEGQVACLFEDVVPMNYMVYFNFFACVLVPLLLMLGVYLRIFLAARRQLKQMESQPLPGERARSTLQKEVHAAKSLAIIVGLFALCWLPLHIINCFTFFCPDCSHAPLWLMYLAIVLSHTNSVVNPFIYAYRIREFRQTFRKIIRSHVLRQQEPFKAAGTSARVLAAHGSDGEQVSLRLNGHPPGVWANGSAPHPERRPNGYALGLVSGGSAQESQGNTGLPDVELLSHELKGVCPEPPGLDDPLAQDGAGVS
Protocol: as §1

Adenosine receptor A3 = molecular target: T3, Adenosine receptor A3 (Homo sapiens, UniProt P0DMS8)
T3 sequence (P0DMS8 whole entry): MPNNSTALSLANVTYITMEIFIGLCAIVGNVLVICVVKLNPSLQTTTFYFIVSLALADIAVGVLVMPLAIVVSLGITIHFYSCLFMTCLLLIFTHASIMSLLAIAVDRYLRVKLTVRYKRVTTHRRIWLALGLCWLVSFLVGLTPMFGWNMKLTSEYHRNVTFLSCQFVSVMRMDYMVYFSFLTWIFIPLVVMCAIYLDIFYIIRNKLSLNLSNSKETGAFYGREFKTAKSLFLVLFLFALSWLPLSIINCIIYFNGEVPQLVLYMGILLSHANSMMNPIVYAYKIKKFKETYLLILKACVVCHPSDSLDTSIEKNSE
Protocol: as §1

| Ki (Adenosine receptor A2b) [µM] | Ki (Adenosine receptor A1) [µM] | Ki (Adenosine receptor A2a) [µM] | Ki (Adenosine receptor A3) [µM] | SMILES |
| --- | --- | --- | --- | --- |
| 0.0024 | 0.067 | 0.002 | 0.2 | Cc1cc(-c2sc(NC(=O)N3CCOC(C(N)=O)C3)nc2-c2cccc(C#N)c2)cc(C)n1 (configuration not stated) [US20230293517, Example 4.14] |
| 0.0012 | 0.12 | – | 0.318 | Cc1cc(-c2sc(NC(=O)N3CCC4(CC3)CNC(=O)N4C)nc2-c2cccc(C#N)c2)cc(C)n1 [US20230293517, Example 6.51] |
| 0.0019 | 0.053 | 0.00038 | 0.268 | Cc1cc(-c2sc(NC(=O)N3CC4(CCOCC4)C3)nc2-c2cccc(C#N)c2)cc(C)n1 [US20230293517, Example 6.54] |
| 0.0024 | 0.086 | 0.0006 | 0.273 | Cc1cc(-c2sc(NC(=O)N3CC4(CNC(=O)C4)C3)nc2-c2cccc(C#N)c2)cc(C)n1 [US20230293517, Example 6.55] |
| 0.0012 | 0.075 | 0.00059 | 0.368 | Cc1cc(-c2sc(NC(=O)N3CCC4(CC3)CNC(=O)O4)nc2-c2cccc(C#N)c2)cc(C)n1 [US20230293517, Example 6.56] |
| 0.0013 | 0.032 | 0.00088 | 0.212 | Cc1cc(-c2sc(NC(=O)N3CC4(CNC(=O)N4)C3)nc2-c2cccc(C#N)c2)cc(C)n1 [US20230293517, Example 6.57] |
| 0.0078 | 0.559 | 0.00227 | 0.848 | Cc1cc(-c2sc(NC(=O)N3CCC4(CCCC(=O)N4)CC3)nc2-c2cccc(C#N)c2)cc(C)n1 [US20230293517, Example 6.58] |
| 0.0006 | 0.037 | 0.00043 | 1.21 | Cc1cc(-c2sc(NC(=O)N3CCC(C)(C#N)CC3)nc2-c2cccc(C#N)c2)c(F)c(C)n1 [US20230293517, Example 6.66] |
| 0.001 | 0.022 | 0.00206 | 0.201 | Cc1cc(-c2sc(NC(=O)N3CC(C)(O)C3)nc2-c2cccc(C#N)c2)c(F)c(C)n1 [US20230293517, Example 6.67] |
| 0.0006 | 0.03 | 0.00036 | 0.217 | Cc1cc(-c2sc(NC(=O)N3CC(C)(C#N)C3)nc2-c2cccc(C#N)c2)c(F)c(C)n1 [US20230293517, Example 6.68] |
| 0.0014 | 0.124 | 0.00094 | 0.156 | Cc1cc(-c2sc(NC(=O)N3CCC4(CC3)CNC4=O)nc2-c2cccc(C#N)c2)c(F)c(C)n1 [US20230293517, Example 6.69] |
| 0.0042 | 0.11 | 0.00345 | 0.062 | Cc1cc(-c2sc(NC(=O)N3CCC[C@H]3CO)nc2-c2cccc(C#N)c2)cc(C)n1 [US20230293517, Example 6.71] |
| 0.0012 | 0.003 | 0.00112 | 0.094 | Cc1cc(-c2sc(NC(=O)N3CC[C@@H]3C)nc2-c2cccc(C#N)c2)cc(C)n1 [US20230293517, Example 6.72] |
| 0.0037 | 0.092 | 0.00251 | 0.165 | Cc1cc(-c2sc(NC(=O)N3CC[C@H]3CO)nc2-c2cccc(C#N)c2)cc(C)n1 [US20230293517, Example 6.73] |
| 0.0217 | 0.039 | 0.0129 | 0.321 | Cc1cc(-c2sc(NC(=O)N3CCOC[C@@H]3CO)nc2-c2cccc(C#N)c2)cc(C)n1 [US20230293517, Example 6.76] |
| 0.006 | 0.177 | 0.0015 | 0.537 | Cc1cc(-c2sc(NC(=O)N3CC4(COC4)C3)nc2-c2cccc(C#N)c2C)cc(C)n1 [US20230293517, Example 6.79] |
| 0.0053 | 0.02 | 0.00166 | 0.162 | Cc1cc(-c2sc(NC(=O)N3CC[C@@H]3CO)nc2-c2cccc(C#N)c2)cc(C)n1 [US20230293517, Example 6.91] |

Source: BindingDB's records for patent US20230293517 (Adorx Therapeutics, 2023)
